Results reported in ChEMBL document CHEMBL5385889, “Design, synthesis and biological evaluations of quinolone amides against African trypanosomiasis with improved solubility” (Eur J Med Chem, 2023).
Converted amounts (≈) assume the structure as drawn.

Tests used:
J774.1 = assay: Cytotoxicity against mouse J774.1 cells assessed as reduction in cell viability incubated for 24 hrs by alamar blue staining based analysis; type: functional
[1] = Selectivity index, ratio of CC50 for cytotoxicity against mouse J774.1 cells assessed as reduction in cell viability to IC50 for antitrypanosomal activity against wild type Trypanosoma brucei M1.2 Lister 427 trypomastigotes form assessed as parasite growth inhibition; type: toxicity, cell-based; settings: read-out: Ratio CC50/IC50
Trypanosoma brucei = assay: Antitrypanosomal activity against wild type Trypanosoma brucei M1.2 Lister 427 trypomastigotes form assessed as parasite growth inhibition incubated for 48 hrs; type: functional, organism-based; settings: M1.2 Lister 427, 48 h
[2] = Octanol/water partition coefficient, log P of the compound by LC-MS analysis; type: physicochemical
[3] = Thermodynamic aqueous solubility of compound in PBS buffer at pH 7.4 at 37 degreeC measured after 24 hrs by HPLC analysis; type: physicochemical; settings: read-out: Therm_solubility

Row | Compound | CC50 (J774.1) [µM] | selectivity ratio [1] | IC50 (Trypanosoma brucei) [µM] | logP [2] | logP ([2]; read-out: logP) | solubility thermodynamic at 24 h [3] [µg/mL]
1 | CCCCn1cc(C(=O)NCc2ccccc2)c(=O)c2cc(F)c(N3CCOCC3)cc21 | 57 | 1210 | 0.047 | 4.1 | – | –
2 | CCCCn1cc(C(=O)NCc2ccccc2)c(=O)c2ccc(N3CCOCC3)cc21 | > 100 | > 435 | 0.23 | – | – | –
3 | CCCCn1cc(C(=O)NCc2ccccc2)c(=O)c2c(F)cc(N3CCOCC3)cc21 | > 100 | > 2000 | 0.05 | – | 3.38 | –
4 | CCCCn1cc(C(=O)NCc2ccc(CN)cc2)c(=O)c2cc(F)c(N3CCOCC3)cc21 | 49.2 | 164 | 0.3 | – | 3.8 | > 1000
5 | CCCCn1cc(C(=O)NC2(c3ccccc3)CCOCC2)c(=O)c2ccc(N3CCOCC3)cc21 | > 50 | – | > 20 | – | 3.6 | 1.03 (≈ 2.1 µM)
6 | CCCCn1cc(C(=O)NCc2ccccc2)c(=O)c2ccc(NCCOCCOCCOC)cc21 | > 50 | > 43 | 1.15 | – | 3.38 | 41 (≈ 82.7 µM)
7 | CCCCn1cc(C(=O)NCc2ccccc2)c(=O)c2cc(F)c(N3CCOCC3)c(Cl)c21 | > 50 | > 278 | 0.18 | – | 5.01 | < 0.1
8 | CCCCn1cc(C(=O)NC2(c3ccccc3)CCCCC2)c(=O)c2cc(F)c(N3CCOCC3)cc21 | 31 | 7 | 4.72 | – | 5.64 | < 0.1
9 | CCCCn1cc(C(=O)NC2(c3ccccc3)CC2)c(=O)c2cc(F)c(N3CCOCC3)c(F)c21 | > 20 | > 333 | 0.06 | – | 4.57 | 0.23 (≈ 0.478 µM)
10 | CCCCn1cc(C(=O)NC2(c3ccccc3)CCCCC2)c(=O)c2ccc(N3CCOCC3)cc21 | 37 | 9 | 4.18 | – | 4.94 | < 0.1
11 | CCCCn1cc(C(=O)NC2(c3ccccc3)CCS(=O)(=O)CC2)c(=O)c2ccc(N3CCOCC3)cc21 | > 50 | – | > 20 | – | 2.83 | 3.35 (≈ 6.23 µM)
12 | CCCCn1cc(C(=O)NCc2ccccc2)c(=O)c2cc(OCC)c(N3CCOCC3)c(OCC)c21 | 33.2 | 17 | 1.93 | – | 5.51 | < 0.1
13 | CCCCn1cc(C(=O)NCc2cccc(C#N)c2)c(=O)c2c(F)cc(N3CCOCC3)cc21 | > 50 | > 2270 | 0.022 | – | 2.98 | 0.24 (≈ 0.519 µM)
14 | CCCCn1cc(C(=O)NCc2ccc(CN)cc2)c(=O)c2c(F)cc(N3CCOCC3)cc21 | > 50 | > 200 | 0.25 | – | 2.72 | > 1000
15 | CCCCn1cc(C(=O)NC2(c3ccccc3)CCCCC2)c(=O)c2c(F)cc(N3CCOCC3)cc21 | > 50 | > 12 | 4.22 | – | 4.97 | < 0.1
16 | CCCCn1cc(C(=O)NCc2ccc(CN)cc2)c(=O)c2ccc(N3CCOCC3)cc21 | > 50 | > 32 | 1.55 | – | 3.24 | > 1000
17 | CCCCn1cc(C(=O)NCc2ccccc2)c(=O)c2ccc(N3CCC(OCCOCCOCCOC)CC3)cc21 | 48.5 | 48 | 1.01 | – | 4.05 | 86.9 (≈ 150 µM)

Row | Compound | CC50 (J774.1) [µM] | selectivity ratio [1] | IC50 (Trypanosoma brucei) [µM] | logP [2] | logP ([2]; read-out: logP) | solubility thermodynamic at 24 h [3] [µg/mL]
18 | O=C(NCc1ccccc1)c1cn(CC2CCC2)c2cc(N3CCOCC3)ccc2c1=O | 29.9 | 37 | 0.8 | – | 3.68 | 1.66 (≈ 3.85 µM)
19 | CCCCn1cc(C(=O)NC2(c3ccccc3)CCCC2)c(=O)c2cc(F)c(N3CCOCC3)cc21 | 47.4 | 26 | 1.83 | – | 5.24 | < 0.1
20 | CCCCn1cc(C(=O)NC2(c3ccccc3)CC2)c(=O)c2ccc(N3CCOCC3)cc21 | > 50 | > 69 | 0.72 | – | 3.76 | < 0.1
21 | CCCCn1cc(C(=O)NCc2ccc(C#N)cc2)c(=O)c2c(F)cc(N3CCOCC3)cc21 | > 50 | > 500 | 0.1 | – | 2.9 | 0.88 (≈ 1.9 µM)
22 | CCCCn1cc(C(=O)NCc2ccccc2)c(=O)c2cc(F)c(N3CCOCC3)c(Br)c21 | > 50 | > 106 | 0.47 | – | 5.05 | < 0.1
23 | CCCCn1cc(C(=O)NC23CC(C2)C3)c(=O)c2ccc(N3CCOCC3)cc21 | > 50 | > 13 | 3.72 | – | 3.74 | 3.02 (≈ 7.64 µM)
24 | CCCCn1cc(C(=O)NC2(c3ccccc3)CC2)c(=O)c2c(F)cc(N3CCOCC3)cc21 | > 50 | > 278 | 0.18 | – | 3.54 | < 0.1
25 | CCCCn1cc(C(=O)NCc2cccc(CN)c2)c(=O)c2ccc(N3CCOCC3)cc21 | > 50 | > 46 | 1.08 | – | 3.31 | > 1000
26 | O=C(NCc1ccccc1)c1cn(CC2CC2)c2cc(N3CCOCC3)ccc2c1=O | > 50 | > 91 | 0.55 | – | 3.24 | 5.81 (≈ 13.9 µM)
27 | CCCCn1cc(C(=O)NC2(c3ccccc3)CC2)c(=O)c2cc(F)c(N3CCOCC3)cc21 | > 50 | > 333 | 0.15 | – | 4.46 | < 0.1
28 | O=C(NCc1ccccc1)c1cn(C23CC(C2)C3)c2cc(N3CCOCC3)ccc2c1=O | 48.4 | 373 | 0.13 | – | 4.57 | 4.06 (≈ 9.45 µM)
29 | O=C(NCc1ccccc1)c1cn(CC2CCCCC2)c2cc(N3CCOCC3)ccc2c1=O | > 50 | > 58 | 0.86 | – | 4.59 | < 0.1
30 | CCCCn1cc(C(=O)NCc2ccccc2)c(=O)c2ccc(OCCOCCOCCOC)cc21 | > 50 | > 45 | 1.12 | – | 3.57 | 93 (≈ 187 µM)
31 | CCCCn1cc(C(=O)NCc2ccccc2)c(=O)c2ccc(N3CCCN(C)CC3)cc21 | 14.2 | 5 | 2.97 | – | 4.51 | 20.9 (≈ 46.8 µM)
32 | CCCCn1cc(C(=O)NCc2cccc(CN)c2)c(=O)c2cc(F)c(N3CCOCC3)cc21 | 41.8 | 80 | 0.52 | – | 3.83 | > 1000
33 | CCCCN1CC(C)(C(=O)NCc2ccccc2)C(=O)c2ccc(N3CCOCC3)cc21 (centres undefined) | > 50 | > 13 | 3.74 | – | 3.04 | 10.4 (≈ 23.9 µM)
34 | CCCCn1cc(C(=O)NC2(c3ccccc3)CCCC2)c(=O)c2ccc(N3CCOCC3)cc21 | 34.1 | 8 | 4.4 | – | 4.57 | < 0.1
